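How tested: cells in 96-well plates exposed to compound for 48 hours at five concentrations. GI50 marks 50% less growth. TGI marks complete inhibition of growth.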
Key:
Assay in all cases: DTP human tumour cell line panel, 48 h
[1] = system: SK-MEL-28 melanoma
[2] = system: K-562 leukemia
[3] = system: UACC-257 melanoma
[4] = system: HL-60(TB) leukemia
[5] = system: PC-3 prostate
[6] = system: SF-539 CNS
[7] = system: IGROV1 ovarian
[8] = system: SK-MEL-2 melanoma
[9] = system: NCI/ADR-RES ovarian
[10] = system: CCRF-CEM leukemia
[11] = system: A549 NSCLC
[12] = system: SNB-75 CNS
[13] = system: OVCAR-3 ovarian
[14] = system: M14 melanoma
[15] = system: SW-620 colon
[16] = system: T-47D breast
[17] = system: SF-295 CNS
[18] = system: NCI-H226 lung
[19] = system: HS 578T breast
[20] = system: SNB-19 CNS
[21] = system: MCF7 breast
[22] = system: COLO 205 colon
[23] = system: UACC-62 melanoma
[24] = system: HOP-62 NSCLC
[25] = system: NCI-H460 lung
[26] = system: SN12C renal
[27] = system: HT29 colon
[28] = system: EKVX NSCLC
[29] = system: MDA-MB-231 breast
[30] = system: SF-268 CNS
[31] = system: NCI-H522 lung
[32] = system: A498 renal
[33] = system: TK-10 renal
[34] = system: MDA-MB-435
[35] = system: NCI-H23 lung
[36] = system: LOX IMVI melanoma
[37] = system: ACHN renal
[38] = system: OVCAR-5 ovarian
[39] = system: U251 CNS
[40] = system: OVCAR-4 ovarian
[41] = system: MOLT-4 leukemia
[42] = system: HCT-116 colon
[43] = system: RPMI-8226 leukemia
[44] = system: HCT-15 colon
[45] = system: RXF 393 renal
[46] = system: DU-145 prostate
[47] = system: KM12 colon
[48] = system: SK-MEL-5 melanoma
[49] = system: UO-31 renal
[50] = system: HCC-2998 colon
[51] = system: OVCAR-8 ovarian
[52] = system: SR leukemia
[53] = system: HOP-92 NSCLC
[54] = system: CAKI-1 renal
[55] = system: MALME-3M melanoma

O=C(Nc1ccc(-n2cc(-c3ccncc3)c(-c3ccc(O)c(Cl)c3)n2)cc1)Nc1ccc(Cl)c(C(F)(F)F)c1 gave a GI50 [1] of 3.64 µM, a TGI [1] of 15 µM and a GI50 [2] of 3.89 µM. The TGI [2] was 49.4 µM, the GI50 [3] was 7.42 µM and the TGI [3] was 30.8 µM. The GI50 [4] was 2.54 µM, the TGI [4] was 6.27 µM and the GI50 [5] was 2.49 µM. It also gave a TGI [5] of 8.74 µM, a GI50 [6] of 2.58 µM and a TGI [6] of 12.5 µM. The GI50 [7] was 4.42 µM, the TGI [7] was 30.3 µM and the GI50 [8] was 1.97 µM. The TGI [8] was 4.52 µM, the GI50 [9] was 4.1 µM and the TGI [9] was 52.7 µM. For the same compound, the GI50 [10] was 3.2 µM, the TGI [10] was 22.3 µM and the GI50 [11] was 3.6 µM. For the same compound, the TGI [11] was 17.4 µM, the GI50 [12] was 2.59 µM and the TGI [12] was 14.3 µM. It also gave a GI50 [13] of 3.23 µM, a TGI [13] of 10.9 µM and a GI50 [14] of 2.48 µM. For the same compound, the TGI [14] was 6.33 µM, the GI50 [15] was 4.55 µM and the TGI [15] was 20 µM. It also gave a GI50 [16] of 8.61 µM, a TGI [16] of 64.1 µM and a GI50 [17] of 2.99 µM. It also gave a TGI [17] of 14.6 µM, a GI50 [18] of 21.4 µM and a TGI [18] of 51.8 µM. For the same compound, the GI50 [19] was 2.43 µM, the TGI [19] was 13 µM and the GI50 [20] was 5.06 µM. The TGI [20] was 19 µM, the GI50 [21] was 3.06 µM and the TGI [21] was 13.4 µM. It also gave a GI50 [22] of 6.23 µM, a TGI [22] of 22.9 µM and a GI50 [23] of 3.9 µM. It also gave a TGI [23] of 14.8 µM, a GI50 [24] of 6.56 µM and a TGI [24] of 27.6 µM. The GI50 [25] was 3.33 µM, the TGI [25] was 11.4 µM and the GI50 [26] was 4.28 µM. For the same compound, the TGI [26] was 17.2 µM, the GI50 [27] was 10.2 µM and the TGI [27] was 25.2 µM. It also gave a GI50 [28] of 3.21 µM, a TGI [28] of 25.4 µM and a GI50 [29] of 3.2 µM. For the same compound, the TGI [29] was 12.5 µM, the GI50 [30] was 4.36 µM and the TGI [30] was 26.7 µM. For the same compound, the GI50 [31] was 2.54 µM, the TGI [31] was 13.4 µM and the GI50 [32] was 14.8 µM. The TGI [32] was 34.3 µM, the GI50 [33] was 2.71 µM and the TGI [33] was 9.78 µM. The GI50 [34] was 2.89 µM, the TGI [34] was 15.3 µM and the GI50 [35] was 3.56 µM. The TGI [35] was 22 µM, the GI50 [36] was 2.14 µM and the TGI [36] was 18 µM. The GI50 [37] was 2.66 µM, the TGI [37] was 9.42 µM and the GI50 [38] was 5.29 µM. It also gave a TGI [38] of 19.1 µM, a GI50 [39] of 2.53 µM and a TGI [39] of 10.1 µM. For the same compound, the GI50 [40] was 3.97 µM, the TGI [40] was 29.9 µM and the GI50 [41] was 3.18 µM. It also gave a TGI [41] of 16.4 µM, a GI50 [42] of 3.15 µM and a TGI [42] of 10.8 µM. For the same compound, the GI50 [43] was 1.99 µM, the TGI [43] was 5.32 µM and the GI50 [44] was 2.95 µM. It also gave a TGI [44] of 11.8 µM, a GI50 [45] of 1.67 µM and a TGI [45] of 3.56 µM. For the same compound, the GI50 [46] was 4.99 µM, the TGI [46] was 18 µM and the GI50 [47] was 3.8 µM. For the same compound, the TGI [47] was 12.8 µM, the GI50 [48] was 2.87 µM and the TGI [48] was 10.7 µM. It also gave a GI50 [49] of 3.01 µM, a TGI [49] of 16.4 µM and a GI50 [50] of 4.65 µM. For the same compound, the TGI [50] was 20.1 µM, the GI50 [51] was 4.11 µM and the TGI [51] was 21.3 µM. For the same compound, the GI50 [52] was 3.96 µM, the TGI [52] was 21.6 µM and the GI50 [53] was 1.82 µM. For the same compound, the TGI [53] was 5 µM, the GI50 [54] was 3.17 µM and the TGI [54] was 19.8 µM. For the same compound, the GI50 [55] was 3.04 µM and the TGI [55] was 17.1 µM.

— PubChem BioAssay (NCI)
